Measurements as given in patent US4735949A, “Disubstituted-7-pyrrolidinonaphthyridine antibacterial agents” (Warner-Lambert Company, priority 1987, dated 1988).
Values after ≈ are worked out from the molar mass of the structure shown. Read-outs that look alike come from different tables or passages of the source.

Experiments:
Assay in all cases: in vitro antibacterial activity, microtitration dilution method
Assay type in all cases: cell-based
Proteus rettgeri M 1771 = details: Providencia rettgeri
Description: (§1) Agents & Chemoth., 6, 124 (1974), which is incorporated herein by reference.

[1] = system: Enterobacter cloacae MA 2646
Description: as §1

Escherichia coli Vogel = details: read-out: Minimal Inhibitory Concentration MIC
Description: as §1

[2] = system: Klebsiella pneumoniae MGH-2
Description: as §1

[3] = system: Staphylococcus aureus H 228; details: H228; Staphylococcus aureus H 228, in vitro; read-out: Minimal Inhibitory Concentration MIC
Description: (§2) The compounds of the invention display antibacterial activity when tested by the microtitration dilution method as described in Heifetz, et al, Antimicr. Agents & Chemoth., 6, 124 (1974), which is incorporated herein by reference.
(§3) By use of the above referenced method, the following minimum inhibitory concentration values (MICs in μg/ml) were obtained for representative compounds of the invention.

[4] = system: Streptococcus pyogenes C-203; details: C203; Streptococcus pyogenes C-203, in vitro; read-out: Minimal Inhibitory Concentration MIC
Description: as §2, §3

[5] = system: Streptococcus pneumoniae SV-1; details: SV1; Streptococcus pneumoniae SV-1, in vitro; read-out: Minimal Inhibitory Concentration MIC
Description: as §2, §3

[6] = system: Staphylococcus aureus UC-76; details: UC76; Staphylococcus aureus UC-76, in vitro; read-out: Minimal Inhibitory Concentration MIC
Description: as §2, §3

[7] = system: Streptococcus faecalis MGH-2; details: Enterococcus faecalis, MGH2; Streptococcus faecalis MGH-2, in vitro; read-out: Minimal Inhibitory Concentration MIC
Description: as §2, §3

[8] = system: Pseudomonas aeruginosa UI-18; details: UI18; Pseudomonas aeruginosa UI-18, in vitro; read-out: Minimal Inhibitory Concentration MIC
Description: as §1

[9] = M1771, read-out: Minimal Inhibitory Concentration MIC
[10] = Klebsiella pneumoniae, MGH2, read-out: Minimal Inhibitory Concentration MIC
[11] = M1771, Proteus rettgeri M 1771, in vitro, read-out: Minimal Inhibitory Concentration MIC
[12] = MA2646, Enterobacter cloacae MA 2646, in vitro, read-out: Minimal Inhibitory Concentration MIC

| SMILES | MIC (Proteus rettgeri M 1771; [9]) [µg/mL] | MIC ([1]; Enterobacter cloacae, MA2646, read-out: Minimal Inhibitory Concentration MIC) [µg/mL] | MIC (Escherichia coli Vogel) [µg/mL] | MIC [2, 10] [µg/mL] | MIC [3] [µg/mL] | MIC [4] [µg/mL] | MIC [5] [µg/mL] | MIC [6] [µg/mL] | MIC [7] [µg/mL] | MIC (Proteus rettgeri M 1771; [11]) [µg/mL] | MIC [1, 12] [µg/mL] | MIC [8] [µg/mL] | MIC ([2]; MGH2, Klebsiella pneumoniae MGH-2, in vitro, read-out: Minimal Inhibitory Concentration MIC) [µg/mL] |
| --- | --- | --- | --- | --- | --- | --- | --- | --- | --- | --- | --- | --- | --- |
| NC1(c2ccccc2)CCN(c2c(F)cc3c(=O)c(C(=O)O)cn(C4CC4)c3c2F)C1 (centres unmarked) [Example 1, 7-[(3-Amino-3-phenyl)-1-pyrrolidinyl]-1-cyclopropyl-6,8-difluoro-1,4-dihydro-4-oxo-3-quinolinecarboxylic acid] | 0.1 (≈ 0.235 µM) | 0.05 (≈ 0.118 µM) | 0.05 (≈ 0.118 µM) | 0.1 (≈ 0.235 µM) | 0.006 (≈ 0.0141 µM) | 0.05 (≈ 0.118 µM) | 0.025 (≈ 0.0588 µM) | 0.006 (≈ 0.0141 µM) | 0.05 (≈ 0.118 µM) | – | – | – | – |
| NCC1CN(c2c(F)cc3c(=O)c(C(=O)O)cn(C4CC4)c3c2F)CC1c1ccccc1 (centres unmarked) [Example 2] | – | – | – | 0.1 (≈ 0.228 µM) | 0.013 (≈ 0.0296 µM) | 0.013 (≈ 0.0296 µM) | 0.006 (≈ 0.0137 µM) | 0.006 (≈ 0.0137 µM) | 0.013 (≈ 0.0296 µM) | 0.4 (≈ 0.91 µM) | 0.2 (≈ 0.455 µM) | 1.6 (≈ 3.64 µM) | – |
| NC1CN(c2c(F)cc3c(=O)c(C(=O)O)cn(C4CC4)c3c2F)CC1c1ccccc1 (centres unmarked) [Example 3, 7-[(3-Amino-4-phenyl)-1-pyrrolidinyl]-1-cyclopropyl-6,8-difluoro-1,4-dihydro-4-oxo-3-quinolinecarboxylic acid] | – | – | 0.1 (≈ 0.235 µM) | – | 0.05 (≈ 0.118 µM) | 0.1 (≈ 0.235 µM) | 0.1 (≈ 0.235 µM) | 0.025 (≈ 0.0588 µM) | 0.1 (≈ 0.235 µM) | 0.4 (≈ 0.94 µM) | 0.2 (≈ 0.47 µM) | 1.6 (≈ 3.76 µM) | 0.2 (≈ 0.47 µM) |
| O=C(O)c1cn(C2CC2)c2c(F)c(N3CCC(O)(c4ccccc4)C3)c(F)cc2c1=O (centres unmarked) [Example 4, 1-Cyclopropyl-6,8-difluoro-1,4-dihydro-7-[(3-hydroxy-3-phenyl)1-pyrrolidinyl]-4-oxo-3-quinolinecarboxylic acid] | 0.1 (≈ 0.235 µM) | – | – | 0.1 (≈ 0.235 µM) | 0.003 (≈ 0.00704 µM) | 0.05 (≈ 0.117 µM) | 0.013 (≈ 0.0305 µM) | 0.003 (≈ 0.00704 µM) | 0.025 (≈ 0.0586 µM) | – | – | – | – |
